From ChEMBL document CHEMBL1909046, “DrugMatrix in vitro pharmacology data”

Columns and labels:
[1] = molecular target: T1, Glucocorticoid receptor (Homo sapiens, UniProt P04150); assay: biochemical
T1 sequence (P04150 whole entry): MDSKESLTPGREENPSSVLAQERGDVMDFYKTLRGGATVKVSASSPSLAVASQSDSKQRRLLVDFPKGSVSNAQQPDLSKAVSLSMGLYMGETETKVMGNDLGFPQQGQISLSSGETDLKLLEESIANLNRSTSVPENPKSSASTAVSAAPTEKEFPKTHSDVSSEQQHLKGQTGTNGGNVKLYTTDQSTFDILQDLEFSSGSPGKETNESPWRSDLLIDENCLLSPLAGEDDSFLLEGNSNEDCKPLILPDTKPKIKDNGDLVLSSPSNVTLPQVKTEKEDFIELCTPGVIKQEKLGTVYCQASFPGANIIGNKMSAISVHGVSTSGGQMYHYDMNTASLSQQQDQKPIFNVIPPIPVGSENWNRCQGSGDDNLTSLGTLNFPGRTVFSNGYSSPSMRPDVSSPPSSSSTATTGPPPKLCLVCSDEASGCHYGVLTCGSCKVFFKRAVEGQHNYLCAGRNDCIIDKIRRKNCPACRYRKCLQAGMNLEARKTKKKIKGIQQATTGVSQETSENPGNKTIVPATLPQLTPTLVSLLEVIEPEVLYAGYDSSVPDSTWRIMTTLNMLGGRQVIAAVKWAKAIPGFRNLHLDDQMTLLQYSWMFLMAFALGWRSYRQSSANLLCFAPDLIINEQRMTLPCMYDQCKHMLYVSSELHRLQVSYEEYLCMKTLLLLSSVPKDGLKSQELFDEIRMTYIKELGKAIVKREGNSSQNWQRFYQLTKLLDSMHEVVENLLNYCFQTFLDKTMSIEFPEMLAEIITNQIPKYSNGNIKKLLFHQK

[2] = molecular target: T2, Cytochrome P450 1A2 (Homo sapiens, UniProt P05177)
T2 sequence (P05177 whole entry): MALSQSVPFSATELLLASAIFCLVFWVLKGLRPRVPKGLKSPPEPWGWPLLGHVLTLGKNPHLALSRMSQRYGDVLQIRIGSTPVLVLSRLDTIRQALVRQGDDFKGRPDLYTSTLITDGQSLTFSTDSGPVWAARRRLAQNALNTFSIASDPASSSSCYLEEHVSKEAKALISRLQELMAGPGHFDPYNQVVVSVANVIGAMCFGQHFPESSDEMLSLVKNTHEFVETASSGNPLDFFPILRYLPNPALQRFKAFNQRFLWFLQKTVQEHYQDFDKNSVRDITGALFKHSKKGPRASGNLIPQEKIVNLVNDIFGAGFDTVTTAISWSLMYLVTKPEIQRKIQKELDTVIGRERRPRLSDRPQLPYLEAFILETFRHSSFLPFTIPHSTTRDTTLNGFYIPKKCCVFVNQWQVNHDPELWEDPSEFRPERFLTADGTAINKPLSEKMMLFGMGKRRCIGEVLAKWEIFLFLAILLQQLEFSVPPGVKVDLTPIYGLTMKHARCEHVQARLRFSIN

[3] = molecular target: T3, Estrogen receptor (Homo sapiens, UniProt P03372); assay: biochemical
T3 sequence (P03372 whole entry): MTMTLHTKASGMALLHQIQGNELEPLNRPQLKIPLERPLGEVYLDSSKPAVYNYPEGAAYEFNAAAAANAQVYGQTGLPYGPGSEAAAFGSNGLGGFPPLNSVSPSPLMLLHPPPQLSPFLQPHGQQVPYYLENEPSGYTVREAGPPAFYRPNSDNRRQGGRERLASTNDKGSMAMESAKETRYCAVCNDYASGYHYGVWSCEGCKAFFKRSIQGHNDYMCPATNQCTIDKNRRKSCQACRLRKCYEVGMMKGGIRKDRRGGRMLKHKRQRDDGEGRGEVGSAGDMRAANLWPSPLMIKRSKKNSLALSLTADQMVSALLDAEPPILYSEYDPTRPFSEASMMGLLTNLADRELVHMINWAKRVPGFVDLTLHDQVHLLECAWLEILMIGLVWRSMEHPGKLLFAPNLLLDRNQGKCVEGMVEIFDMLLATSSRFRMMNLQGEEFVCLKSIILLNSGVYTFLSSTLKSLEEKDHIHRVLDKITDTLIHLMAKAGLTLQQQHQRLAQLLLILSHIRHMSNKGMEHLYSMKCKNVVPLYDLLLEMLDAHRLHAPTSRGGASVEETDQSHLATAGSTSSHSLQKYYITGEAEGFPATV

[4] = molecular target: Cytochrome P450 2C9 (Homo sapiens, UniProt P11712)
Cytochrome P450 2C9, sequence (P11712 whole entry): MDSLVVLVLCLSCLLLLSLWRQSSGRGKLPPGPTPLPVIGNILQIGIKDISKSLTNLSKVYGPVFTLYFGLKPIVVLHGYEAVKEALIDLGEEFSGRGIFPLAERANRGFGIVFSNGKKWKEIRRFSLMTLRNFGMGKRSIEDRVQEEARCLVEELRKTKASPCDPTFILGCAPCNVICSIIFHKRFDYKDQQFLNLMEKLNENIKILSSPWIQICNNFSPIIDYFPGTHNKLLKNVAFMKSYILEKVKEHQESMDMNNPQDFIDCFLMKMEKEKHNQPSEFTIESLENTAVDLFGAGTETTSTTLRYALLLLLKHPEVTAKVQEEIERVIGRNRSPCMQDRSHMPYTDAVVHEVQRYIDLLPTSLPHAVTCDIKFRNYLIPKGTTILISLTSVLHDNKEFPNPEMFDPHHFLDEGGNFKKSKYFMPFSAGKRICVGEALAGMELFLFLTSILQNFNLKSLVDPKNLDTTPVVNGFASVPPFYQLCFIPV

CC(=O)OCC(=O)[C@@]1(OC(C)=O)[C@@H](C)C[C@H]2[C@@H]3C[C@H](F)C4=CC(=O)C=C[C@]4(C)[C@@]3(F)[C@@H](O)C[C@@]21C [DIFLORASONE DIACETATE]
IC50 [1]: 0.0064 µM | Ki [1]: 0.00291 µM

c1ccc2c(c1)cc1ccc3cccc4ccc2c1c34
IC50 [2]: 0.04 µM

CCCCCCCCCc1ccc(O)cc1 [4-NONYLPHENOL]
IC50 [3]: 0.377 µM | Ki [3]: 0.108 µM

CC(=O)[C@@]1(O)CC[C@H]2[C@@H]3C[C@H](C)C4=CC(=O)C=C[C@]4(C)[C@@]3(F)[C@@H](O)C[C@@]21C [FLUOROMETHOLONE]
IC50 [1]: 0.00347 µM | Ki [1]: 0.00158 µM

O=C1CCc2cc(OCCCCc3nnnn3C3CCCCC3)ccc2N1 [CILOSTAZOL]
IC50 [4]: 10 µM

Cc1[nH]cnc1CN1CCc2c(c3ccccc3n2C)C1=O [ALOSETRON]
IC50 [2]: 0.605 µM
